Source: PubChem BioAssay (NCI)
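Step 1: Grow cells in 96-well plates. Step 2: Expose to compound for 48 hours at 5 concentrations. Step 3: Interpolate endpoints linearly; if unreached, use highest concentration. At the TGI there is no net growth.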

What was measured:
Assay in all cases: growth of human tumour cells (NCI), 48 h
[1] = test system: TK-10 renal
[2] = test system: OVCAR-5 ovarian
[3] = test system: MCF7 breast
[4] = test system: 786-0 renal
[5] = test system: DU-145 prostate
[6] = test system: MDA-MB-231 breast
[7] = test system: LOX IMVI melanoma
[8] = test system: COLO 205 colon
[9] = test system: SF-268 CNS
[10] = test system: HCT-15 colon
[11] = test system: PC-3 prostate
[12] = test system: UACC-62 melanoma
[13] = test system: A498 renal
[14] = test system: OVCAR-4 ovarian

SMILES: CCOC(=O)c1nc2ccc(C(F)(F)F)cc2nc1NCc1cc(OC)c(OC)c(OC)c1
- TGI [1]: > 100 µM
- TGI [2]: > 100 µM
- TGI [3]: > 100 µM
- TGI [4]: > 100 µM
- TGI [5]: > 100 µM
- TGI [6]: > 100 µM
- TGI [7]: > 100 µM
- TGI [8]: 73.4 µM
- TGI [9]: > 100 µM
- TGI [10]: > 100 µM
- TGI [11]: > 100 µM
- TGI [12]: > 100 µM
- TGI [13]: > 100 µM

SMILES: Cc1ccc(SCC(CF)OC(C)n2cnc3c(=O)[nH]c(N)nc32)cc1 (stereo not drawn)
- TGI [1]: > 100 µM
- TGI [2]: > 100 µM
- TGI [3]: > 100 µM
- TGI [4]: > 100 µM
- TGI [5]: > 100 µM
- TGI [6]: > 100 µM
- TGI [7]: > 100 µM
- TGI [8]: > 100 µM
- TGI [14]: > 100 µM
- TGI [9]: > 100 µM
- TGI [10]: > 100 µM
- TGI [11]: > 100 µM
- TGI [12]: > 100 µM

SMILES: CCN(CC)C(=O)Cn1c(C)cc2ccccc21
- TGI [1]: > 100 µM
- TGI [2]: > 100 µM
- TGI [3]: > 100 µM
- TGI [4]: > 100 µM
- TGI [5]: > 100 µM
- TGI [6]: > 100 µM
- TGI [7]: > 100 µM
- TGI [8]: > 100 µM
- TGI [14]: > 100 µM
- TGI [9]: > 100 µM
- TGI [10]: > 100 µM
- TGI [11]: > 100 µM
- TGI [12]: > 100 µM

SMILES: Oc1ccc(-c2nc(-c3cccnc3)c(-c3ccc(Cl)cc3)[nH]2)cc1
- TGI [1]: 26.3 µM
- TGI [2]: 33.5 µM
- TGI [3]: 24.7 µM
- TGI [4]: 28.8 µM
- TGI [5]: 29.4 µM
- TGI [6]: 35.1 µM
- TGI [7]: 24 µM
- TGI [8]: 23.9 µM
- TGI [14]: 23.3 µM
- TGI [9]: 29.6 µM
- TGI [10]: 25.2 µM
- TGI [11]: 19.5 µM
- TGI [12]: 25.9 µM

SMILES: Cc1nc(-c2cc3cc([N+](=O)[O-])ccc3oc2=O)cs1
- TGI [1]: > 100 µM
- TGI [2]: > 100 µM
- TGI [3]: > 100 µM
- TGI [4]: > 100 µM
- TGI [5]: > 100 µM
- TGI [6]: > 100 µM
- TGI [7]: > 100 µM
- TGI [8]: > 100 µM
- TGI [14]: > 100 µM
- TGI [9]: > 100 µM
- TGI [10]: > 100 µM
- TGI [11]: > 100 µM
- TGI [12]: > 100 µM

SMILES: CC(C)(C)OC(=O)NC(Cc1ccc(OCc2ccccc2)cn1)C(=O)N1CCCCC1 (stereo not drawn)
- TGI [1]: > 100 µM
- TGI [2]: > 100 µM
- TGI [3]: > 100 µM
- TGI [4]: > 100 µM
- TGI [5]: > 100 µM
- TGI [6]: > 100 µM
- TGI [7]: 71 µM
- TGI [8]: 33.3 µM
- TGI [9]: > 100 µM
- TGI [10]: > 100 µM
- TGI [11]: 55.2 µM
- TGI [12]: > 100 µM
- TGI [13]: > 100 µM

SMILES: Cc1ccc(N=Nc2c(O)ccc3cc(S(=O)(=O)O)cc(S(=O)(=O)O)c23)cc1
- TGI [1]: > 100 µM
- TGI [2]: > 100 µM
- TGI [3]: > 100 µM
- TGI [4]: > 100 µM
- TGI [5]: > 100 µM
- TGI [6]: > 100 µM
- TGI [8]: > 100 µM
- TGI [14]: > 100 µM
- TGI [9]: > 100 µM
- TGI [10]: > 100 µM
- TGI [11]: > 100 µM
- TGI [12]: > 100 µM
- TGI [13]: > 100 µM

SMILES: Cc1ccc(/C=C2\CCCc3ccccc3C2=O)cc1
- TGI [1]: > 100 µM
- TGI [2]: 29.5 µM
- TGI [3]: 47.3 µM
- TGI [4]: > 100 µM
- TGI [5]: > 100 µM
- TGI [6]: 36.9 µM
- TGI [7]: 30 µM
- TGI [8]: 18.9 µM
- TGI [14]: > 100 µM
- TGI [9]: 30.7 µM
- TGI [10]: 27.2 µM
- TGI [11]: > 100 µM
- TGI [12]: 29.2 µM

SMILES: NC(Cc1ccccc1)C(=O)N[C@H]1c2ccsc2/C(=N/O)[C@H]1O (stereo partly drawn)
- TGI [1]: > 100 µM
- TGI [2]: > 100 µM
- TGI [3]: > 100 µM
- TGI [5]: > 100 µM
- TGI [6]: > 100 µM
- TGI [7]: > 100 µM
- TGI [8]: > 100 µM
- TGI [14]: > 100 µM
- TGI [10]: > 100 µM
- TGI [11]: > 100 µM
- TGI [12]: > 100 µM
- TGI [13]: > 100 µM

SMILES: O=C(O)c1ccc([N+](=O)[O-])c2cc3cnccc3nc12
- TGI [2]: 76.9 µM
- TGI [3]: 38.7 µM
- TGI [5]: > 100 µM
- TGI [6]: 36.2 µM
- TGI [8]: 40.4 µM
- TGI [10]: 45 µM
- TGI [11]: 34.6 µM
- TGI [12]: 24.8 µM
- TGI [13]: > 100 µM

SMILES: O=C1/C(=N/O)Cc2c(Br)ccc(Br)c21
- TGI [1]: > 100 µM
- TGI [2]: > 100 µM
- TGI [3]: > 100 µM
- TGI [4]: > 100 µM
- TGI [5]: > 100 µM
- TGI [6]: > 100 µM
- TGI [7]: > 100 µM
- TGI [14]: > 100 µM
- TGI [9]: > 100 µM
- TGI [10]: > 100 µM
- TGI [11]: > 100 µM
- TGI [13]: > 100 µM

SMILES: O=C1C=CC[C@H]2O[C@@H](COC(=O)Cc3ccccc3)C[C@H]2O1
- TGI [1]: 65.5 µM
- TGI [2]: > 100 µM
- TGI [3]: > 100 µM
- TGI [5]: > 100 µM
- TGI [6]: > 100 µM
- TGI [8]: > 100 µM
- TGI [14]: 85.9 µM
- TGI [9]: 56.2 µM
- TGI [10]: 45.7 µM
- TGI [11]: > 100 µM
- TGI [12]: > 100 µM
- TGI [13]: > 100 µM

SMILES: CN1CCC(O)(C(C)(C)C)CC1
- TGI [1]: > 100 µM
- TGI [2]: > 100 µM
- TGI [3]: > 100 µM
- TGI [4]: > 100 µM
- TGI [5]: > 100 µM
- TGI [6]: > 100 µM
- TGI [7]: > 100 µM
- TGI [8]: > 100 µM
- TGI [14]: > 100 µM
- TGI [9]: > 100 µM
- TGI [10]: > 100 µM
- TGI [11]: > 100 µM
- TGI [12]: > 100 µM

SMILES: CCN(CC)CCNc1nc2ccc([N+](=O)[O-])cc2[n+]([O-])n1
- TGI [1]: > 100 µM
- TGI [2]: 31.7 µM
- TGI [3]: 9.86 µM
- TGI [4]: > 100 µM
- TGI [5]: > 100 µM
- TGI [6]: 33.1 µM
- TGI [8]: 18.6 µM
- TGI [14]: 26.5 µM
- TGI [9]: > 100 µM
- TGI [10]: 39.8 µM
- TGI [11]: 75.3 µM
- TGI [12]: 35 µM
- TGI [13]: 49.7 µM

SMILES: COc1ccc(C2OC[C@H]3O[C@@H](OCc4ccccc4)[C@H](O)[C@@H](O)[C@@H]3O2)cc1 (stereo partly drawn)
- TGI [1]: > 100 µM
- TGI [2]: > 100 µM
- TGI [3]: > 100 µM
- TGI [5]: > 100 µM
- TGI [6]: > 100 µM
- TGI [7]: > 100 µM
- TGI [8]: > 100 µM
- TGI [14]: > 100 µM
- TGI [9]: > 100 µM
- TGI [10]: > 100 µM
- TGI [11]: > 100 µM
- TGI [12]: > 100 µM
- TGI [13]: > 100 µM
